From ChEMBL document CHEMBL1157995, “New acetylenic enol ethers of glycerol from the sponge Petrosia sp” (1999)
In brackets after ≈: the same amount, converted by molar mass.

Tested on: K562
Test: Cytotoxicity against human K-562 cells after 5 days by MTT assay
Type: functional
Conditions: K562, 120 h, read-out: LC50 (the source's name)

| Compound | CC50 [µg/mL] |
| --- | --- |
| CCCCCC/C=C\C#C/C=C\OC[C@@H](O)CO [PETRORASPAILYNE A1] | 9.2 (≈ 36.5 µM) |
| CC(C)CCCC/C=C\C#C/C=C\OC[C@@H](O)CO [PETRORASPAILYNE A2] | 57 (≈ 214 µM) |
| CCC(C)CCCCC/C=C\C#C/C=C\OC[C@@H](O)CO (stereo partly specified) [PETRORASPAILYNE A3] | 29 (≈ 98.5 µM) |
| CCCCCCCCC#C/C=C\OC[C@@H](O)CO [PETRORASPAILYNE B1] | > 100 |
| CCC(C)CCCCCC#C/C=C\OC[C@@H](O)CO (stereo partly specified) [PETRORASPAILYNE B2] | > 100 |
| CC(C)CCCCCCC#C/C=C\OC[C@@H](O)CO [PETRORASPAILYNE B3] | > 100 |
